{"source": "patent US20120004200A1", "about": "“TOPICAL PHARMACEUTICAL COMPOSITION CONTAINING A WATER-SENSITIVE ACTIVE PRINCIPLE” (GALDERMA S.A., priority 2008, published 2012)", "key": {"[1]": {"test": "Stability of calcitriol in various solvent oils", "type": "physicochemical", "settings": "RT", "description": "In order to optimize the dissolution of the active agent to be incorporated into the compositions according to the invention, stability tests are performed in various solvent oils: The preparations are prepared according to the following proportions: 0.00666% of calcitriol/0.29629% of BHT, a sufficient amount of solvent oil to obtain 100%. Assay technique by HPLC against reference substance."}, "[2]": {"settings": "T 3 months, 4% hydroquinone", "description": "The preparations are prepared according to the following proportions: 4% of hydroquinone, a sufficient amount of solvent oil to obtain 100%.\n(§1) Assay technique by HPLC against reference substance."}, "[3]": {"test": "Stability of rucinol in various solvent oils", "type": "physicochemical", "settings": "40° C., T 1 month, 5% rucinol", "description": "The preparations are prepared according to the following proportions: 5% of rucinol, a sufficient amount of solvent oil to obtain 100%.\nas §1"}, "[4]": {"test": "Stability of ivermectin in various solvent oils", "type": "physicochemical", "settings": "40° C., T 1 month, 1% ivermectin", "description": "The preparations are prepared according to the following proportions: 1% of ivermectin, a sufficient amount of solvent oil to obtain 100%.\nas §1"}}, "note": "Read-outs that look alike come from different tables or passages of the source."}
{"molecule": "C=C1/C(=C\\C=C2/CCC[C@]3(C)[C@@H]([C@H](C)CCCC(C)(C)O)CC[C@@H]23)C[C@@H](O)C[C@@H]1O", "note": "[Calcitriol, calcitriol]", "values": [{"measurement": "% Calcitriol/To", "setting": "[1]; solvent PPG-15 stearyl ether, T 1 month", "value": 100.00, "unit": "%"}, {"measurement": "% Calcitriol/To", "setting": "[1]; solvent caprylic/capric triglycerides, T 1 month, 0.00666% calcitriol, 0.29629% BHT", "value": 100.3, "unit": "%"}, {"measurement": "% Calcitriol/To", "setting": "[1]; solvent caprylic/capric triglycerides, T 3 months", "value": 99.9, "unit": "%"}, {"measurement": "% Calcitriol/To", "setting": "[1]; solvent diisopropyl adipate, T 1 month", "value": 101.5, "unit": "%"}, {"measurement": "% Calcitriol/To", "setting": "[1]; solvent diisopropyl adipate, T 3 months", "value": 97.2, "unit": "%"}, {"measurement": "% Calcitriol/To", "setting": "[1]; solvent octyldodecanol, T 1 month", "value": 98.3, "unit": "%"}, {"measurement": "% Calcitriol/To", "setting": "[1]; solvent octyldodecanol, T 3 months", "value": 95.00, "unit": "%"}]}
{"molecule": "Oc1ccc(O)cc1", "note": "[Hydroquinone, hydroquinone]", "values": [{"measurement": "% Hydroquinone/To", "setting": "[2]; solvent PPG-15 stearyl ether, 40° C.", "value": 96.00, "unit": "%"}, {"measurement": "% Hydroquinone/To", "setting": "[2]; solvent caprylic/capric triglycerides, 40° C.", "value": 95.00, "unit": "%"}, {"measurement": "% Hydroquinone/To", "setting": "[2]; solvent diisopropyl adipate, temperature not given", "value": 97.4, "unit": "%"}]}
{"molecule": "CCCCc1ccc(O)cc1O", "note": "[Rucinol, rucinol]", "values": [{"measurement": "% Rucinol (% LC)", "setting": "[3]; solvent PEG-8 caprylic/capric triglycerides", "value": 100, "unit": "% LC"}, {"measurement": "% Rucinol (% LC)", "setting": "[3]; solvent PEG-35 castor oil", "value": 96, "unit": "% LC"}, {"measurement": "% Rucinol (% LC)", "setting": "[3]; solvent PPG-15 stearyl ether", "value": 95, "unit": "% LC"}, {"measurement": "% Rucinol (% LC)", "setting": "[3]; solvent caprylic/capric triglycerides", "value": 99, "unit": "% LC"}]}
{"molecule": "ivermectin", "values": [{"measurement": "% Ivermectin/To", "setting": "[4]; solvent PPG-15 stearyl ether", "value": 98.07, "unit": "%"}, {"measurement": "% Ivermectin/To", "setting": "[4]; solvent benzyl alcohol", "value": 98.6, "unit": "%"}, {"measurement": "% Ivermectin/To", "setting": "[4]; solvent diisopropyl adipate", "value": 96.7, "unit": "%"}, {"measurement": "% Ivermectin/To", "setting": "[4]; solvent phenoxyethanol", "value": 98.6, "unit": "%"}]}
